# Results: ChEMBL document CHEMBL4138123, “Design, synthesis and biological evaluation of novel pyrazolochalcones as potential modulators of PI3K/Akt/mTOR pathway and inducers of apoptosis in breast cancer cells” (Eur J Med Chem, 2017)
# Assays:
# [1] = system: SF-268; test: Cytotoxicity against human SF268 cells assessed as cell growth at 100 uM after 48 hrs by sulforhodamine B assay relative to control; format: functional; conditions: SF-268, 48 h, read-out: Activity
# [2] = system: OVCAR-8; test: Cytotoxicity against human OVCAR8 cells assessed as cell growth at 10 uM after 48 hrs by sulforhodamine B assay relative to control; format: functional; conditions: OVCAR-8, 48 h, read-out: Activity
# [3] = system: HCT-15; test: Cytotoxicity against human HCT15 cells assessed as growth inhibition after 48 hrs by sulforhodamine B assay; format: functional; conditions: HCT-15, 48 h
# [4] = system: NCI-H23; test: Cytotoxicity against human NCI-H23 cells assessed as cell growth at 0.1 uM after 48 hrs by sulforhodamine B assay relative to control; format: functional; conditions: NCI-H23, 48 h, read-out: Activity
# [5] = system: MOLT-4; test: Cytotoxicity against human MOLT4 cells assessed as cell growth at 0.01 uM after 48 hrs by sulforhodamine B assay relative to control; format: functional; conditions: MOLT-4, 48 h, read-out: Activity
# [6] = system: MDA-MB-231; test: Cytotoxicity against human MDA-MB-231 cells assessed as cell growth at 0.01 uM after 48 hrs by sulforhodamine B assay relative to control; format: functional; conditions: MDA-MB-231, 48 h, read-out: Activity
# [7] = system: UACC-257; test: Cytotoxicity against human UACC257 cells assessed as growth inhibition after 48 hrs by sulforhodamine B assay; format: functional; conditions: UACC-257, 48 h
# [8] = system: HL-60(TB); test: Cytotoxicity against human HL-60(TB) cells assessed as cell growth at 10 uM after 48 hrs by sulforhodamine B assay relative to control; format: functional; conditions: HL-60, 48 h, read-out: Activity
# [9] = system: A498; test: Cytotoxicity against human A498 cells assessed as cell growth at 10 uM after 48 hrs by sulforhodamine B assay relative to control; format: functional; conditions: A498, 48 h, read-out: Activity
# [10] = system: OVCAR-8; test: Cytotoxicity against human OVCAR8 cells assessed as cell growth at 0.01 uM after 48 hrs by sulforhodamine B assay relative to control; format: functional; conditions: OVCAR-8, 48 h, read-out: Activity
# [11] = system: SR; test: Cytotoxicity against human SR cells assessed as cell growth at 0.1 uM after 48 hrs by sulforhodamine B assay relative to control; format: functional; conditions: read-out: Activity
# [12] = system: HCC 2998; test: Cytotoxicity against human HCC2998 cells assessed as cell growth at 10 uM after 48 hrs by sulforhodamine B assay relative to control; format: functional; conditions: HCC 2998, 48 h, read-out: Activity
# [13] = system: UACC-62; test: Cytotoxicity against human UACC62 cells assessed as cell growth at 0.01 uM after 48 hrs by sulforhodamine B assay relative to control; format: functional; conditions: UACC-62, 48 h, read-out: Activity
# [14] = system: MDA-MB-231; test: Cytotoxicity against human MDA-MB-231 cells assessed as growth inhibition after 48 hrs by MTT assay; format: functional, cell-based; conditions: MDA-MB-231, 48 h
# [15] = system: OVCAR-8; test: Cytotoxicity against human OVCAR8 cells assessed as cell growth at 1 uM after 48 hrs by sulforhodamine B assay relative to control; format: functional; conditions: OVCAR-8, 48 h, read-out: Activity
# [16] = system: MDA-MB-435; test: Cytotoxicity against human MDA-MB-435 cells assessed as cell growth at 0.1 uM after 48 hrs by sulforhodamine B assay relative to control; format: functional; conditions: MDA-MB-435, 48 h, read-out: Activity
# [17] = system: COLO 205; test: Cytotoxicity against human COLO205 cells assessed as cell growth at 0.01 uM after 48 hrs by sulforhodamine B assay relative to control; format: functional; conditions: COLO 205, 48 h, read-out: Activity
# [18] = system: SN12C; test: Cytotoxicity against human SN12C cells assessed as cell growth at 10 uM after 48 hrs by sulforhodamine B assay relative to control; format: functional; conditions: read-out: Activity
# [19] = system: PC-3; test: Cytotoxicity against human PC3 cells assessed as cell growth at 1 uM after 48 hrs by sulforhodamine B assay relative to control; format: functional; conditions: PC-3, 48 h, read-out: Activity
# [20] = system: MDA-MB-468; test: Cytotoxicity against human MDA-MB-468 cells assessed as cell growth at 0.1 uM after 48 hrs by sulforhodamine B assay relative to control; format: functional; conditions: MDA-MB-468, 48 h, read-out: Activity
# [21] = system: SK-MEL-28; test: Cytotoxicity against human SK-MEL-28 cells assessed as cell growth at 0.01 uM after 48 hrs by sulforhodamine B assay relative to control; format: functional; conditions: SK-MEL-28, 48 h, read-out: Activity
# [22] = system: BT-549; test: Cytotoxicity against human BT549 cells assessed as cell growth at 10 uM after 48 hrs by sulforhodamine B assay relative to control; format: functional; conditions: BT-549, 48 h, read-out: Activity
# [23] = system: MDA-MB-231; test: Cytotoxicity against human MDA-MB-231 cells assessed as cell growth at 0.1 uM after 48 hrs by sulforhodamine B assay relative to control; format: functional; conditions: MDA-MB-231, 48 h, read-out: Activity
# [24] = system: COLO 205; test: Cytotoxicity against human COLO205 cells assessed as growth inhibition after 48 hrs by sulforhodamine B assay; format: functional; conditions: COLO 205, 48 h
# [25] = system: SK-MEL-28; test: Cytotoxicity against human SK-MEL-28 cells assessed as cell growth at 10 uM after 48 hrs by sulforhodamine B assay relative to control; format: functional; conditions: SK-MEL-28, 48 h, read-out: Activity
# [26] = system: SF-268; test: Cytotoxicity against human SF268 cells assessed as cell growth at 0.01 uM after 48 hrs by sulforhodamine B assay relative to control; format: functional; conditions: SF-268, 48 h, read-out: Activity
# [27] = system: MDA-MB-231; test: Cytotoxicity against human MDA-MB-231 cells assessed as cell growth at 10 uM after 48 hrs by sulforhodamine B assay relative to control; format: functional; conditions: MDA-MB-231, 48 h, read-out: Activity
# [28] = system: K562; test: Cytotoxicity against human K562 cells assessed as cell growth at 100 uM after 48 hrs by sulforhodamine B assay relative to control; format: functional; conditions: K562, 48 h, read-out: Activity
# [29] = system: Hs-578T; test: Cytotoxicity against human Hs 578T cells assessed as cell growth at 0.01 uM after 48 hrs by sulforhodamine B assay relative to control; format: functional; conditions: read-out: Activity
# [30] = system: ACHN; test: Cytotoxicity against human ACHN cells assessed as cell growth at 0.1 uM after 48 hrs by sulforhodamine B assay relative to control; format: functional; conditions: read-out: Activity
# [31] = system: MDA-MB-468; test: Cytotoxicity against human MDA-MB-468 cells assessed as cell growth at 0.01 uM after 48 hrs by sulforhodamine B assay relative to control; format: functional; conditions: MDA-MB-468, 48 h, read-out: Activity
# [32] = system: NCI-H23; test: Cytotoxicity against human NCI-H23 cells assessed as cell growth at 1 uM after 48 hrs by sulforhodamine B assay relative to control; format: functional; conditions: NCI-H23, 48 h, read-out: Activity
# [33] = system: KM12; test: Cytotoxicity against human KM12 cells assessed as cell growth at 10 uM after 48 hrs by sulforhodamine B assay relative to control; format: functional; conditions: KM12, 48 h, read-out: Activity
# [34] = system: HCT-116; test: Cytotoxicity against human HCT116 cells assessed as cell growth at 100 uM after 48 hrs by sulforhodamine B assay relative to control; format: functional; conditions: HCT-116, 48 h, read-out: Activity
# [35] = system: U-251; test: Cytotoxicity against human U251 cells assessed as growth inhibition after 48 hrs by sulforhodamine B assay; format: functional; conditions: U-251, 48 h
# [36] = system: OVCAR-3; test: Cytotoxicity against human OVCAR3 cells assessed as cell growth at 10 uM after 48 hrs by sulforhodamine B assay relative to control; format: functional; conditions: OVCAR-3, 48 h, read-out: Activity
structure (smiles),measurement,setting,value
COc1ccc(-c2cc(/C=C/C(=O)c3ccc(N)cc3)[nH]n2)cc1OC,growth at 100 µM,[1],-80%
same,growth at 10 µM,[2],2%
same,GI50,[3],1.7 µM
same,LC50,[3],33 µM
same,TGI,[3],5.37 µM
same,growth at 0.1 µM,[4],103%
same,growth at 0.01 µM,[5],108%
same,growth at 0.01 µM,[6],113%
same,GI50,[7],6.46 µM
same,LC50,[7],45.7 µM
same,TGI,[7],19.5 µM
same,growth at 10 µM,[8],10%
same,growth at 10 µM,[9],-16%
same,growth at 0.01 µM,[10],98%
same,growth at 0.1 µM,[11],104%
same,growth at 10 µM,[12],-75%
same,growth at 0.01 µM,[13],99%
same,IC50,[14],2.2 µM
same,growth at 1 µM,[15],93%
same,growth at 0.1 µM,[16],98%
same,growth at 0.01 µM,[17],92%
same,growth at 10 µM,[18],14%
same,growth at 1 µM,[19],89%
same,growth at 0.1 µM,[20],91%
same,growth at 0.01 µM,[21],92%
same,growth at 10 µM,[22],-91%
same,growth at 0.1 µM,[23],107%
same,GI50,[24],1.88 µM
same,LC50,[24],6.87 µM
same,TGI,[24],3.59 µM
same,growth at 10 µM,[25],-29%
same,growth at 0.01 µM,[26],100%
same,growth at 10 µM,[27],24%
same,growth at 100 µM,[28],-3%
same,growth at 0.01 µM,[29],98%
same,growth at 0.1 µM,[30],93%
same,growth at 0.01 µM,[31],94%
same,growth at 1 µM,[32],99%
same,growth at 10 µM,[33],-79%
same,growth at 100 µM,[34],-89%
same,GI50,[35],1.74 µM
same,LC50,[35],7.69 µM
same,TGI,[35],3.66 µM
same,growth at 10 µM,[36],-56%
